The values that follow come from patent US20210040041A1, “QUINOLINE DERIVATIVES AND PREPARATION METHODS AND USES THEREOF” (DONGGUAN HEC PESTICIDES R&D CO., LTD., priority 2018, published 2021).

Assay type in all cases: in vivo
Data set [1] deals with Diamondback moth. The experiment in a line: Test examples 3: leaf dipping method, cabbage, Diamondback moth. Particulars: for mortality at 12.5 µg/mL / mortality at 25 µg/mL / mortality at 50 µg/mL: Plutella xylostella, foliar, 72 h, after 3 days, read-out: The mortality rate (%) to Diamondback moth; for mortality at 12.5 µg/mL: 12.5 mg/L; for mortality at 25 µg/mL: 25 mg/L; for mortality at 50 µg/mL: 50 mg/L. As to the method: (§1) A certain amount of compound (0.0001 g) was weighed by using an analytical balance, and prepared to a mother liquid (1) with N,N-dimethylformamide containing 1% Tween-80 emulsifier, and then the other liquid was diluted with distilled water or standby.
(§2) Leaf dipping method: an appropriate amount of cabbage was infiltrated in the prepared liquid and dried in the shade naturally, and then placed in a culture dish with filter paper; Armyworm/Diamondback moth larvae in the 2-3rd instar were inoculated, 10 heads per dish, and the dishes were cultured in an observation room at 24-27° C. The results were investigated after 3 days. […] The test concentrations were 50 mg/L, 25 mg/L, 12.5 mg/L, 6.25 mg/L, 3.13 mg/L, 1.56 mg/L.

The test system of data set [2] is Armyworm. The experiment in a line: Test examples 3: leaf dipping method, cabbage, Armyworm. The method, then:
as §1, §2

For data set [3], the system named is Armyworm. In words: Test examples 1: leaf dipping method, corn leaves, Armyworm. Particulars: Mythimna separata, foliar, 72 h; 200 mg/L, third instar larvae, after 3 days; read-out: mortality rate to Armyworm. The method, then:
(§3) A certain amount of compound (0.0001 g) was weighed by using an analytical balance, and prepared to a mother liquid (1) with N,N-dimethylformamide containing 1% Tween-80 emulsifier, and then the mother liquid was diluted with distilled water for standby.
Leaf dipping method: the test target was Armyworm. An appropriate amount of corn leaves were infiltrated in the prepared liquid and dried in the shade naturally, and then placed in a culture dish with filter paper; armyworm larvae in the third instar were inoculated to the corn leaves, 10 heads per dish, and the dishes were cultured in an observation room at 24-27° C. The results were investigated after 3 days. […] The test concentration was 200 mg/L.

The test system of data set [4] is Diamondback moth. The experiment in a line: Test examples 1: leaf dipping method, cabbage leaves, Diamondback moth. The following applies: Plutella xylostella, foliar, 72 h; 200 mg/L, third instar, after 3 days; read-out: mortality rate to Diamondback moth. As to the method: as §3
(§4) Leaf dipping method: the test targets were Diamondback moth, Tobacco Cutworm and Beet Armyworm. An appropriate amount of cabbage leaves were infiltrated in the prepared liquid and dried in the shade naturally, and then placed in a culture dish with filter paper; worms in the third instar were inoculated to the leaves, 10 heads per dish, and the dishes were cultured in an observation room at 24-27° C. The results were investigated after 3 days. […] The test concentration was 200 mg/L or 100 mg/L.

Data set [5] deals with Beet Armyworm. In words: Test examples 1: leaf dipping method, cabbage leaves, Beet Armyworm. Particulars: Spodoptera exigua, foliar, 72 h; 100 mg/L, third instar, after 3 days; read-out: mortality rate to Beet Armyworm. The method, then: as §3, §4
A further data set relates to Tobacco Cutworm. The experiment in a line: Test examples 1: leaf dipping method, cabbage leaves, Tobacco Cutworm. The following applies: foliar, 72 h; 100 mg/L, third instar, after 3 days; read-out: mortality rate to Tobacco Cutworm. As to the method: as §3, §4
The subject of the next data set is Brown rice planthopper. In words: Test examples 1: spraying leaves and stems, rice seedlings, Brown rice planthopper. The following applies: 500 mg/L, after 72 hours; read-out: mortality rate to Brown rice planthopper. The method, then: as §3
Spraying Leaves and Stems: the test target was Brown rice planthopper. Rice seedlings inoculated with Brown rice planthopper were spayed under Potter spray tower, and then the Brown rice planthopper was placed and cultured in an observation room at 24-27° C. The results were investigated after 72 hours. The test concentration was 500 mg/L.

A further data set concerns Aphis medicaginis. The experiment in a line: Test examples 1: leaves dish spraying, Vicia faba leaves, Aphis medicaginis. Particulars: 500 mg/L, after 48 hours, read-out: mortality rate to Aphis medicaginis. The method, then: as §3
Leaves Dish Spraying: the test targets were tetranychuscinnabarinus and Aphis craccivora Koch. Vicia faba leaves inoculated with Carmine Spider Mite and Aphis medicaginis were spayed under Potter spray tower, and then the Carmine Spider Mite was placed and cultured in anobservation room at 24-27° C.; the Aphis medicaginis was placed and cultured in an observation room at 20-22° C. The results were investigated after 48 hours. […] The test concentration was 500 mg/L.

Data set [6] concerns Diamondback moth. The experiment in a line: Test examples 2: leaf dipping method, Diamondback moth. The following applies: Plutella xylostella, foliar, 72 h, after 3 days, read-out: The mortality rate (%) of the compound to Diamondback moth; for mortality at 12.5 µg/mL: 12.5 mg/L; for mortality at 25 µg/mL: 25 mg/L; for mortality at 50 µg/mL: 50 mg/L. The method, then: (§5) A certain amount of compound (0.0001 g) was weighed by using an analytical balance, and prepared to a mother liquid (1%) with N, N-dimethylformamide containing 1% Tween-80 emulsifier, and then the mother liquid was diluted with distilled water for standby.
(§6) Leaf dipping method: an appropriate amount of corn leaves/cabbage/cowpea were infiltrated in the prepared liquid and dried in the shade naturally, and then placed in a culture dish with filter paper; armyworm/Diamondback moth/Beet Armyworm larvae in the 2-3rd instar were inoculated to the corn leaves, 10 heads per dish, and the dishes were cultured in an observation room at 24-27° C. The results were investigated after 3 days. […] The test concentrations were 50 mg/L, 25 mg/L, 12.5 mg/L, 6.25 mg/L, 3.13 mg/L, 1.56 mg/L.

Data set [7] deals with Armyworm. In words: Test examples 2: leaf dipping method, Armyworm. The following applies: Mythimna separata, foliar, 72 h, after 3 days, read-out: The mortality rate (%) of the compound to Armyworm; for mortality at 12.5 µg/mL: 12.5 mg/L; for mortality at 25 µg/mL: 25 mg/L; for mortality at 50 µg/mL: 50 mg/L. The method, then: as §5, §6
The subject of data set [8] is Beet Armyworm. The experiment in a line: Test examples 2: leaf dipping method, Beet Armyworm. Particulars: Spodoptera exigua, foliar, 72 h, after 3 days, read-out: The mortality rate (%) of the compound to Beet Armyworm; for mortality at 12.5 µg/mL: 12.5 mg/L; for mortality at 25 µg/mL: 25 mg/L; for mortality at 50 µg/mL: 50 mg/L. As to the method: as §5, §6
Data set [9] concerns Frankliniella occidentalis. In words: Test examples 2: spraying of cowpea leaf discs, Frankliniella occidentalis. The following applies: foliar, 24 h, after 1 day, read-out: The mortality rate (%) of the compound to Frankliniella occidentalis; for mortality at 5 µg/mL: 5 mg/L; for mortality at 10 µg/mL: 10 mg/L; for mortality at 20 µg/mL: 20 mg/L. The method, then: as §5
Spraying: cowpea leaves growing uniformity were punched with a punching bear to make leaf discs, leaf discs were placed onto degreased cotton blocks in a dish, two leaf discs per dish, and water was added into the dish and it was flush with the leaf discs, and the dish was for standby. Frankliniella occidentalis in the 2-3rd instar were inoculated to the ready leaf discs, more than 15 per disc. Which were spayed under Potter spray tower at a dose of 0.5 mL per treatment. The blank control was treated first, and then the above operations were repeated in the order of the test dose from low to high, with 2 repeats per treatment. After treatment, the samples were placed in the observation room, and the results were investigated 1 day later. […] The test concentrations were 20 mg/L, 10 mg/L, 5.0 mg/L, 2.5 mg/L, 1.25 mg/L, 0.625 mg/L.

Turning to `CCc1nc2cc(C)c(Oc3ccc(OC(F)(F)F)cc3)cc2c(O)c1C` [compound NO. 119, reference compound], the mortality (as a rule, the percentage killed) at 12.5 µg/mL turned out to be 70% in the data set on Diamondback moth [1] and 10% with Armyworm [2] (Mythimna separata, foliar, 72 h, 12.5 mg/L, after 3 days, read-out: The mortality rate (%) to Armyworm). The mortality at 25 µg/mL in the data set on Diamondback moth [1] turned out to be 90%; in the data set with Armyworm [2] (Mythimna separata, foliar, 72 h, 25 mg/L, after 3 days, read-out: The mortality rate (%) to Armyworm), 50%. The mortality at 50 µg/mL came to 100% in the data set with Diamondback moth [1] and 60% in the data set with Armyworm [2] (Mythimna separata, foliar, 72 h, 50 mg/L, after 3 days, read-out: The mortality rate (%) to Armyworm).
Regarding “2-ethyl-3,5,7-trimethyl-6-(4-(trifluoromethoxy)phenoxy)quinolin-4-ol [compound (42)]”, the “The mortality rate (%) to Armyworm” value is recorded as 80% in the data set on Armyworm [2] (12.5 mg/L, after 3 days); 85% in the data set on Armyworm [2] (25 mg/L, after 3 days); 95% in the data set on Armyworm [2] (50 mg/L, after 3 days).
For `CCc1nc2cc(C)c(Oc3ccc(OC(F)(F)F)cc3)cc2c(OC(=O)OCCOC)c1C` [Example 1, 2-ethyl-3,7-dimethyl-6-(4-(trifluoromethoxy)phenoxy)quinolin-4-yl (2-methoxyethyl)carbonate], the mortality at 200 µg/mL in the data set on Armyworm [3] and in the data set with Diamondback moth [4] was 100% in each case. Further, the mortality at 100 µg/mL in the data set with Beet Armyworm [5] and in the data set on Tobacco Cutworm was 100% each time. The mortality at 500 µg/mL in the data set with Brown rice planthopper and in the data set on Aphis medicaginis was 100% throughout. Also, the mortality at 12.5 µg/mL was determined as 100% in the data set with Diamondback moth [6], 100% in the data set with Armyworm [7] and 90% in the data set with Beet Armyworm [8]. Moreover, the mortality at 25 µg/mL with Diamondback moth [6], with Armyworm [7] and with Beet Armyworm [8] was 100% each time. Further, the mortality at 50 µg/mL in the data set on Diamondback moth [6], in the data set with Armyworm [7] and with Beet Armyworm [8] was 100% throughout. Further, the mortality at 5 µg/mL in data set [9] came out at 100%. Further, the mortality at 10 µg/mL in [9] was 100%. Besides, in data set [9], the mortality at 20 µg/mL was 100%.
For the compound `CCc1nc2cc(C)c(Oc3ccc(OC(F)(F)F)cc3)c(C)c2c(O)c1C` [compound (42), 2-ethyl-3,5,7-trimethyl-6-(4-(trifluoromethoxy)phenoxy)quinolin-4-ol], in the data set on Diamondback moth [1], the mortality at 12.5 µg/mL worked out at 100%, the mortality at 25 µg/mL worked out at 100% and the mortality at 50 µg/mL came to 100%. Further, the “control effect on Diamondback moth” value with Diamondback moth [1] (in words, different doses) is “significant control effect”. Besides, in the data set with Armyworm [2] (in words, different doses), the “control effect on Armyworm” value is recorded as “significant control effect”.
On to `CCc1nc2cc(C)c(Oc3ccc(OC(F)(F)F)cc3)c(C)c2c(OC(=O)OCCOC)c1C` [Example 18, 2-ethyl-3,5,7-trimethyl-6-(4-(trifluoromethoxy)phenoxy)quinolin-4-yl (2-methoxyethyl) carbonate], for which, in the data set with Diamondback moth [6], the mortality at 12.5 µg/mL amounted to 100%, the mortality at 25 µg/mL was found to be 100% and the mortality at 50 µg/mL amounted to 100%. In the data set on Armyworm [7], the mortality at 12.5 µg/mL is 100%, the mortality at 25 µg/mL worked out at 100% and the mortality at 50 µg/mL was 100%. Further, in the data set with Beet Armyworm [8], the mortality at 12.5 µg/mL turned out to be 90%, the mortality at 25 µg/mL worked out at 100% and the mortality at 50 µg/mL was determined as 100%. Also, in data set [9], the mortality at 5 µg/mL came out at 100%, the mortality at 10 µg/mL was found to be 100% and the mortality at 20 µg/mL came to 100%.
